Patent US6358885B1, “Substituted phenylheterocyclic herbicides” (Mississippi State University, priority 1992, dated 2002)

Tests used:
pigweed = assay: Test C preemergence/postemergence greenhouse plant response rating 0 to 100; format: in vivo, Amaranthusretroflexus; conditions: POSTEMERGENCE; for Plant response rating Pigweed: 0 to 100 scale
In short: (§1)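 Compounds in non-phytotoxic solvent went onto sandy loam before emergence (seeded one day earlier) or onto plants at the one-to-four leaf stage. Duck salad was treated via flood water (~2.5 cm, maintained) over silt loam.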

sugar beet = assay: as above; format: in vivo, Beta vulgaris; conditions: POSTEMERGENCE; for Plant response rating, Sugar beet: 0 to 100 scale
In short: as §1

wild buckwheat = assay: Test B preemergence/postemergence greenhouse plant response rating 0 to 10; format: in vivo, Polygonum convolvulus; conditions: 0 to 10 scale
In short: (§2)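 Planted seeds are treated preemergence with compound dissolved in a non-phytotoxic solvent, while postemergence applications go onto plants of two to eighteen cm. Plants stay in the greenhouse twelve to sixteen days and are then rated visually relative to controls.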

velvetleaf = assay: Test C preemergence/postemergence greenhouse plant response rating 0 to 100; format: in vivo, Abutilon theophrasti; conditions: POSTEMERGENCE; for Plant response rating, Velvetleaf: 0 to 100 scale
In short: as §1

bedstraw = assay: as above; format: in vivo, Galium aparine; conditions: POSTEMERGENCE; for Plant response rating, Bedstraw: 0 to 100 scale
In short: as §1

chickweed = assay: as above; format: in vivo, Stellaria media; conditions: POSTEMERGENCE; for Plant response rating, Chickweed: 0 to 100 scale
In short: as §1

corn = assay: as above; format: in vivo, Zea mays; conditions: POSTEMERGENCE; for Plant response rating, Corn: 0 to 100 scale
In short: as §1

duck salad = assay: Test C flood test plant response rating 0 to 100; format: in vivo, Heteranthera limosa; conditions: for Plant response rating Duck salad: flood test species listed under POSTEMERGENCE, 0 to 100 scale
In short: as §1

soybean = assay: Test B preemergence/postemergence greenhouse plant response rating 0 to 10; format: in vivo, Glycine max; conditions: 0 to 10 scale
In short: as §2

cotton = assay: Test C preemergence/postemergence greenhouse plant response rating 0 to 100; format: in vivo, Gossypium hirsutum; conditions: POSTEMERGENCE; for Plant response rating, Cotton: 0 to 100 scale
In short: as §1

cocklebur = assay: Test B preemergence/postemergence greenhouse plant response rating 0 to 10; format: in vivo, Xanthium pensylvanicum; conditions: 0 to 10 scale
In short: as §2

rice [1] = assay: Test C flood test plant response rating 0 to 100; format: in vivo, Oryza sativa; conditions: for Plant response rating Rice Japonica: flood test species listed under POSTEMERGENCE, 0 to 100 scale
In short: (§3)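 Compounds in non-phytotoxic solvent applied preemergence to sandy loam one day after planting, postemergence at the 1–4 leaf stage, or to ~2.5 cm floodwater over silt loam.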

umbrella sedge = assay: Test C flood test plant response rating 0 to 100; format: in vivo, Cyperus difformis; conditions: for Plant response rating Umbrella sedge: flood test species listed under POSTEMERGENCE, 0 to 100 scale
In short: as §3

blackgrass = assay: Test C preemergence/postemergence greenhouse plant response rating 0 to 100; format: in vivo, Alopecurus myosuroides; conditions: POSTEMERGENCE; for Plant response rating, Blackgrass: 0 to 100 scale
In short: as §1

rice [2] = assay: Test B preemergence/postemergence greenhouse plant response rating 0 to 10; format: in vivo, Oryza sativa; conditions: 0 to 10 scale
In short: as §2

purple nutsedge = assay: as above; format: in vivo, Cyperus rotundus; conditions: 0 to 10 scale
In short: as §2

giant foxtail = assay: Test C preemergence/postemergence greenhouse plant response rating 0 to 100; format: in vivo, Setaria faberii; conditions: POSTEMERGENCE; for Plant response rating, Giant foxtail: 0 to 100 scale
In short: as §1

[3] = POSTEMERGENCE section, flood test, Rate 4 g/ha
[4] = Rate 16 g/ha, under POSTEMERGENCE head (flood test species)

Fc1cc(Cl)c(OCCCl)cc1-c1nn2c(c1Cl)CCCC2 [Compound 49]
Plant response rating Pigweed (pigweed; 62 g/ha): 100
Plant response rating Pigweed (pigweed; 250 g/ha): 100
Plant response rating (0 to 100), Pigweed (pigweed; Rate 4 g/ha): 70
Plant response rating (0 to 100), Pigweed (pigweed; Rate 16 g/ha): 100
Plant response rating, Sugar beet (sugar beet; 62 g/ha): 100
Plant response rating, Sugar beet (sugar beet; 250 g/ha): 100
Plant response rating (0 to 100), Sugar beet (sugar beet; Rate 4 g/ha): 100
Plant response rating (0 to 100), Sugar beet (sugar beet; Rate 16 g/ha): 100
Plant response rating, Wild buckwheat (wild buckwheat; POSTEMERGENCE, Rate 50 g/ha): 10
Plant response rating, Wild buckwheat (wild buckwheat; PREEMERGENCE, Rate 50 g/ha): 7
Plant response rating, Wild buckwheat (wild buckwheat; Rate 200 g/ha, POSTEMERGENCE): 10
Plant response rating, Wild buckwheat (wild buckwheat; Rate 200 g/ha, PREEMERGENCE): 10
Plant response rating, Velvetleaf (velvetleaf; 62 g/ha): 100
Plant response rating, Velvetleaf (velvetleaf; 250 g/ha): 100
Plant response rating (0 to 100), Velvetleaf (velvetleaf; Rate 4 g/ha): 50
Plant response rating (0 to 100), Velvetleaf (velvetleaf; Rate 16 g/ha): 90
Plant response rating, Bedstraw (bedstraw; 62 g/ha): 70
Plant response rating, Bedstraw (bedstraw; 250 g/ha): 100
Plant response rating (0 to 100), Bedstraw (bedstraw; Rate 4 g/ha): 20
Plant response rating (0 to 100), Bedstraw (bedstraw; Rate 16 g/ha): 50
Plant response rating, Chickweed (chickweed; 62 g/ha): 50
Plant response rating, Chickweed (chickweed; 250 g/ha): 80
Plant response rating (0 to 100), Chickweed (chickweed; Rate 4 g/ha): 20
Plant response rating (0 to 100), Chickweed (chickweed; Rate 16 g/ha): 50
Plant response rating, Corn (corn; 62 g/ha): 40
Plant response rating, Corn (corn; 250 g/ha): 50
Plant response rating (0 to 100), Corn (corn; Rate 4 g/ha): 10
Plant response rating (0 to 100), Corn (corn; Rate 16 g/ha): 30
Plant response rating (0 to 100), Duck salad (duck salad; [3]): 20
Plant response rating (0 to 100), Duck salad (duck salad; [4]): 70
Plant response rating Duck salad (duck salad; 62 g/ha): 90
Plant response rating Duck salad (duck salad; 250 g/ha): 95
Plant response rating, Soybean (soybean; POSTEMERGENCE, Rate 50 g/ha): 8
Plant response rating, Soybean (soybean; PREEMERGENCE, Rate 50 g/ha): 0
Plant response rating, Soybean (soybean; Rate 200 g/ha, POSTEMERGENCE): 8
Plant response rating, Soybean (soybean; Rate 200 g/ha, PREEMERGENCE): 3
Plant response rating, Cotton (cotton; 62 g/ha): 100
Plant response rating, Cotton (cotton; 250 g/ha): 100
Plant response rating (0 to 100), Cotton (cotton; Rate 4 g/ha): 90
Plant response rating (0 to 100), Cotton (cotton; Rate 16 g/ha): 90
Plant response rating, Cocklebur (cocklebur; POSTEMERGENCE, Rate 50 g/ha): 9
Plant response rating, Cocklebur (cocklebur; POSTEMERGENCE, Rate 200 g/ha): 8
Plant response rating, Cocklebur (cocklebur; PREEMERGENCE, Rate 50 g/ha): 0
Plant response rating, Cocklebur (cocklebur; Rate 200 g/ha, PREEMERGENCE): 0
Plant response rating (0 to 100), Rice Japonica (rice [1]; [3]): 10
Plant response rating (0 to 100), Rice Japonica (rice [1]; [4]): 30
Plant response rating Rice Japonica (rice [1]; 62 g/ha): 50
Plant response rating Rice Japonica (rice [1]; 250 g/ha): 60
Plant response rating (0 to 100), Umbrella sedge (umbrella sedge; [3]): 40
Plant response rating (0 to 100), Umbrella sedge (umbrella sedge; [4]): 70
Plant response rating Umbrella sedge (umbrella sedge; 62 g/ha): 90
Plant response rating Umbrella sedge (umbrella sedge; 250 g/ha): 95
Plant response rating, Blackgrass (blackgrass; 62 g/ha): 50
Plant response rating, Blackgrass (blackgrass; 250 g/ha): 70
Plant response rating (0 to 100), Blackgrass (blackgrass; Rate 4 g/ha): 10
Plant response rating (0 to 100), Blackgrass (blackgrass; Rate 16 g/ha): 40
Plant response rating, Rice (rice [2]; POSTEMERGENCE, Rate 50 g/ha): 5
Plant response rating, Rice (rice [2]; PREEMERGENCE, Rate 50 g/ha): 0
Plant response rating, Rice (rice [2]; Rate 200 g/ha, POSTEMERGENCE): 6
Plant response rating, Rice (rice [2]; Rate 200 g/ha, PREEMERGENCE): 0
Plant response rating, Nutsedge (purple nutsedge; POSTEMERGENCE, Rate 50 g/ha): 2
Plant response rating, Nutsedge (purple nutsedge; PREEMERGENCE, Rate 50 g/ha): 0
Plant response rating, Nutsedge (purple nutsedge; Rate 200 g/ha, POSTEMERGENCE): 6
Plant response rating, Nutsedge (purple nutsedge; Rate 200 g/ha, PREEMERGENCE): 0
Plant response rating, Giant foxtail (giant foxtail; 62 g/ha): 50
Plant response rating, Giant foxtail (giant foxtail; 250 g/ha): 60
Plant response rating (0 to 100), Giant foxtail (giant foxtail; Rate 4 g/ha): 30
Plant response rating (0 to 100), Giant foxtail (giant foxtail; Rate 16 g/ha): 40
